Reference: patent US10412963B2, “Agricultural and horticultural fungicide composition and plant disease controlling method” (SDS BIOTECH K.K., priority 2016, dated 2019)

Assays:
[1] = tested on: cucumber powdery mildew; test: Effect test on cucumber powdery mildew (potted cucumbers, spray); assay type: in vivo; conditions: 10 days after inoculation
From the text: A sufficient amount of a dilute solution of each wettable powder prepared in Formulation Example 1 was spread with a spray gun on cucumbers (variety: Hikari No. 3 P-type) that had been grown in a greenhouse to the third-leaf unfolding stage in a plastic pot having a diameter of 6 cm. The next day, the cucumbers were inoculated with a suspension of cucumber powdery mildew spores by misting. The cucumbers were allowed to stand in the greenhouse for 10 days, and diseased area ratios in the first leaf and the second leaf (first and second leaves from the ground) were investigated with eyes to determine a preventive value. The preventive value (%) was calculated using the following equation. Preventive value=(1−(ratio of infection zone in leaf with test compound/ratio of infection zone in control leaf))×100

[2] = tested on: Botrytis cinerea; test: Effect test on cucumber gray mold (cucumber cotyledons, paper disc); assay type: in vivo; conditions: 20° C., 4 days
Experimental: Cotyledons were harvested from cucumbers (variety: Hikari No. 3 P-type) that had been grown in a greenhouse for 3 weeks in a plastic pot having a diameter of 6 cm. The harvested cotyledons were placed side by side in a Tupperware container in which wetted filter paper was laid, and a paper disc having a diameter of 8 mm was placed on the center of each of the cotyledons. To each paper disc, 50 μL of a suspension of Botrytis cinerea spores (2×10^4/ml, containing 2% of sucrose and 0.2% of a yeast extract) was added, and at the same time, 50 μL of a phosphate buffer (40 mM, pH 7.2) having dissolved therein each wettable powder prepared in Formulation Example 1 at a target concentration was added. A lid was placed on the Tupperware container, which was kept at 20° C. for 4 days. After that, diseased areas were investigated with eyes to determine a preventive value. The preventive value (%) was calculated using the following equation. Preventive value=(1−(diameter of infection zone in leaf with test compound/diameter of infection zone in control leaf))×100

Molecule | Preventive value (%) ([1]; single chemical 0.5 ppm) | Preventive value (%) ([1]; single chemical 1 ppm) | Preventive value (%) ([1]; single chemical 2 ppm) | Preventive value (%) ([1]; single chemical 5 ppm) | Preventive value (%) ([1]; single chemical 10 ppm) | Preventive value (%) ([2]; single chemical 0.5 ppm) | Preventive value (%) ([2]; single chemical 1 ppm) | Preventive value (%) ([2]; single chemical 2 ppm) | Preventive value (%) ([2]; single chemical 5 ppm) | Preventive value (%) ([2]; single chemical 10 ppm)
C[C@@H](N)C(=O)N[C@H]1COC(O)[C@H](N)[C@H]1O (stereo partly drawn) [Prumycin, 4-N-D-alanyl-2,4-diamino-2,4-dideoxyarabinose] | 7% | 21% | 44% | 69% | 95% | 6% | 45% | 55% | 95% | 100%
surfactin |  | 0% |  |  | 0% |  | 0% |  |  | 0%
iso-C14 [Ile^7]surfactin |  | 0% |  |  | 0% |  | 0% |  |  | 0%
